We go through 11 molecules from patent publication US20220017484A1, “INHIBITOR OF BRUTON TYROSINE KINASE” (BEIJING RECIPROCAPHARMACEUTICALS CO., LTD., priority 2018, published 2022).

The target in experiment [1] is T1, Btk (Homo sapiens, UniProt Q06187). The experiment is described as follows: Analysis of in vitro inhibitory activity of Btk (cell-free TR-FRET kinase assay). The note with it: for IC50: cell-free TR-FRET, ATP at Km, 1 h, read-out: Efficacy (Btk IC50); for inhibitory effects against Btk (in words): summary of Table 1 efficacy data. It is filed as biochemical. The procedure:
In a cell-free kinase assay, the method described below or a similar method was used to determine the half inhibitory concentration (IC50) of the compound of the present invention on Btk.
Btk kinase activity was determined using a time-resolved fluorescence resonance energy transfer (TR-FRET) methodology. Measurements were performed in a reaction volume of 50 μL using 96-well assay plates. […] The reaction was quenched by the addition of 1.2 equivalents of EDTA (relative to divalent cation) in […] of 1× Lance buffer (Perkin-Elmer). Streptavidin-APC (Perkin-Elmer) and Eu-labeled p-Tyr100 antibody (Perkin-Elmer) in 1× Lance buffer were added in a volume of 25 μL to give final concentrations of 100 nM and 2.5 nM, respectively. The mixture was allowed to incubate for 1 h. The TR-FRET signal was measured on a multimode plate reader at an excitation wavelength (λEx) of 330 nm and detection wavelengths (λEm) of 615 and 665 nm. The activity was determined by the ratio of fluorescence at 665 nm to that at 615 nm. For each compound, the enzyme activity was measured in the presence of different concentrations of the compound. Negative control reactions were performed in the absence of inhibitor in replicates of six, and two no-enzyme controls were used to determine baseline fluorescence levels. IC50 was obtained by fitting using the program Batch Ki (Kuzmic, et al. (2000), Anal. Biochem. 286:45-50).
The Example compounds 1-50 of the present invention were synthesized according to the above Synthetic Schemes I to VII. In the analysis of in vitro inhibitory activity of Btk, the IC50 values of the Example compounds 1-50 of the present invention were determined. The IC50 values are given according to the interval of the IC50 value, where “+++” means IC50<100 nM; “++” means 100 nM≤IC50<1000 nM; and “+” means 1000 nM≤IC50<10000 nM.
Background: In TR-FRET formats the signal depends on donor and acceptor labels being close together.

A further experiment relates to OCI-LY7 cells. The experiment can be described thus: Cell viability assay (CellTiter-Glo, 72 h). It is filed as cell-based. The note with it: Homo sapiens, read-out: Results from inhibition of OCI-LY7 cells (IC50). The protocol: An in vitro cell viability assay was conducted using the compounds of Examples 1-50 following the steps below:
1. After OCI-LY7 cells were recovered, they were cultured at 37° C., 5% CO2, and 95% humidity.
2. For the compounds of Examples 1-50, 8 compound solutions at different concentrations were prepared, respectively. 50 μL of the compound solution at each concentration was added to a 96-well black plate.
3. The cell concentration was adjusted to about 30,000 cells/mL. 100 μL of cell suspension was added to the 96-well plate, and mixed well. The final cell density was about 3,000 cells/well.
4. The 96-well plate was placed at 37° C., 5% CO2, and 95% humidity for 72 h.
5. The cell survival rate was measured by the method of CellTiter-Glo® Luminescent Cell Viability Assay (Promega, Cat #G7572). The fluorescence data were read on a microplate reader (EnVision™, a multi-function microplate detector, PerkinElmer).
6. The obtained fluorescence data were analyzed using GraphPad Prism software. The cell survival rate was calculated for each example compound at each concentration, and the IC50 interval of each example compound was obtained.
(Cellular ATP, detected with luciferase, serves as a proxy for viable cell number.)

Experiment [2] addresses T1, Btk. The experiment is described as follows: Covalent inhibition assay on BTK (fluorescent probe labeling, SDS-PAGE scanning). The format is binding. More on the design: purchased carna 08-180. The note with it: for binding mode to recombinant BTK: 0.5 μM and 5 μM, 1 h incubation; for inhibition of the labeling of BTK by the fluorescent probe: 1 h incubation with BTK, then probe 1 h, 1% DMSO control. The procedure: FIG. 1 is a graph showing the scanning results from SDS-PAGE electrophoresis after the compounds of Examples 23 and 26 at two concentrations (0.5 μM and 5 μM) were incubated with BTK for 1 h, and then a probe prepared according to Sci. Rep. 2015, 5, 16136 was added and incubated for 1 h.
This assay was carried out using the compounds of Examples 23 and 26. The reagents used are as follows:
BTK kinase: brand name: carna, product number: 08-180, concentration: […];
BTK enzyme activity buffer: 1× kinase buffer+1 mM DTT+5 mM MgCl2+50 nM SEB;
BTK probe (100 μM): prepared according to Sci. Rep. 2015, 5, 16136 (Pan Zhengying, et al.);
The compounds of Examples 23 and 26: prepared as described above, and prepared at two concentrations (0.5 μM/5 μM) respectively.
The steps of the assay are as follows:
1. The sample order was 1% DMSO, 0.5 μM compound of Example 23, 5 μM compound of Example 23, 0.5 μM compound of Example 26, and 5 μM compound of Example 26. The compounds, BTK, probe and 2× loading buffer were added to 5 200 μl EP tubes using a pipette.
2. The final concentrations of the compounds of Examples 23 and 26 were 0.5 μM and 5 μM, and the control group was 1% DMSO. The compounds were first prepared with DMSO to 100× the above final concentrations, and diluted ×40 with BTK enzyme activity Buffer. For the reaction, 4 μl/well of the compound was added to the 10 μl system using a pipette to reach its final concentration. For 1% DMSO, the stock solution was diluted ×40 with BTK enzyme activity Buffer.
3. The BTK (200 ng/μl) was diluted to 10 ng/μl, and the probe (100 μM) was diluted to 2.5 μM. They were placed on ice for later use, and the probe was protected from light.
4. To each tube was added 4 μl of BTK, followed by 4 μl of the Example compound. After 1 h incubation, the probe was added, and then incubated for 1 h in the dark.
5. 2× loading buffer was prepared. After the probe was incubated, 10 μl of the 2× loading buffer was added to each well, mixed well, and heated at 100° C. for 10 min to prepare the sample.
6. 10 μl (containing 20 ng of BTK, and 0.5 μM probe) was loaded. Scanning was performed after SDS-PAGE. The order of samples was the order of spotting.
If it is a compound that reversibly binds to BTK, the probe would bind to the released BTK during 1 h incubation with a mixture of the compound and BTK, leading to a fluorescent band.

Some results are limits rather than exact numbers.

T1 sequence (Q06187 whole entry): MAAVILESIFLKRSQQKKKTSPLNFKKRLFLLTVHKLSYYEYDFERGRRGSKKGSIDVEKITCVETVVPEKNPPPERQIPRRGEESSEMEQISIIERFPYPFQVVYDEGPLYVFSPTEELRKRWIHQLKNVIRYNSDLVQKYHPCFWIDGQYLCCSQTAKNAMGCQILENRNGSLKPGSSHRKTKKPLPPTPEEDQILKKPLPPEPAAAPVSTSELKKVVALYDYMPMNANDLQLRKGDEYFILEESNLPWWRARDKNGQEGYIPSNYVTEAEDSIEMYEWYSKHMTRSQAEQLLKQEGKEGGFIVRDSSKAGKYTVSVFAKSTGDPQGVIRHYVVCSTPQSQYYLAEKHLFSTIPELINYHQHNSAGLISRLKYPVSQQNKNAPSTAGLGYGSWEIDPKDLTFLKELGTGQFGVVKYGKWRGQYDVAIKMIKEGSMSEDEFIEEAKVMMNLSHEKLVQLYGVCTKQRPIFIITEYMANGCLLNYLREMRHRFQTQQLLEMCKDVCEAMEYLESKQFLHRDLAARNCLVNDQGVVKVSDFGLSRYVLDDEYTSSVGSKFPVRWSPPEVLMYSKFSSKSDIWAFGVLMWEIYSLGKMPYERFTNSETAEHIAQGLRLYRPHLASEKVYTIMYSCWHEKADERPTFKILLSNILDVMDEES

In general, IC50 refers to the concentration at which inhibition is half-maximal. Take `C=CC(=O)N(C)c1cccc(Nc2ncc3cc(-c4c(C)cc[nH]c4=O)ccc3n2)c1` [Example 23]: the IC50 on Btk [1] is below 100 nM; in the experiment with OCI-LY7 cells, below 500 nM. Further, the “inhibitory effects against Btk (in words)” value (from here on “inhibitory effects”) against Btk [1] is “particularly excellent inhibitory effects”. The “binding mode to recombinant BTK” value on Btk [2] was “irreversibly covalently binds”. Moreover, the “inhibition of the labeling of BTK by the fluorescent probe” value on Btk [2] (compound 0.5 μM) and on Btk [2] (compound 5 μM) was “completely inhibit” throughout.
With `C=CC(=O)N(CC)c1cccc(Nc2ncc3cc(-c4c(C)cc[nH]c4=O)ccc3n2)c1` [Example 26], the IC50 is below 100 nM at Btk [1] and below 500 nM with OCI-LY7 cells. Besides, on Btk [1], the “inhibitory effects” value is “particularly excellent inhibitory effects”. The “binding mode to recombinant BTK” value at Btk [2] is reported as “irreversibly covalently binds”. The “inhibition of the labeling of BTK by the fluorescent probe” value on Btk [2] (compound 0.5 μM) and at Btk [2] (compound 5 μM) was “completely inhibit” throughout.
For `C=CC(=O)N1CCOc2ccc(Nc3ncc4cc(-c5c(C)cc[nH]c5=O)ccc4n3)cc21` [Example 42], the IC50 on Btk [1] is below 100 nM; with OCI-LY7 cells, 500 to 2500 nM.
For `C=CC(=O)N(CCN(C)C)c1cccc(Nc2ncc3cc(-c4c(C)cc[nH]c4=O)ccc3n2)c1` [Example 43] the same measures were below 100 nM and at least 2500 nM.
On to `[2H]C([2H])([2H])N(C(=O)C=C)c1cccc(Nc2ncc3cc(-c4c(C)cc[nH]c4=O)ccc3n2)c1` [Example 44], for which the IC50 at Btk [1] is below 100 nM; with OCI-LY7 cells, below 500 nM. For the same molecule, the “inhibitory effects” value against Btk [1] was “particularly excellent inhibitory effects”.
For `[2H]C([2H])=C([2H])C(=O)N(C)c1cccc(Nc2ncc3cc(-c4c(C)cc[nH]c4=O)ccc3n2)c1` [Example 45] the same measures were below 100 nM, below 500 nM and “particularly excellent inhibitory effects”.
In the case of `[2H]C([2H])=C([2H])C(=O)N(c1cccc(Nc2ncc3cc(-c4c(C)cc[nH]c4=O)ccc3n2)c1)C([2H])([2H])[2H]` [Example 46], at Btk [1], the IC50 was below 100 nM and the “inhibitory effects” value was “particularly excellent inhibitory effects”. For the same molecule, in the experiment with OCI-LY7 cells, the IC50 was below 500 nM.
In the case of `[2H]C([2H])([2H])C([2H])([2H])N(C(=O)C=C)c1cccc(Nc2ncc3cc(-c4c(C)cc[nH]c4=O)ccc3n2)c1` [Example 47], the IC50 on Btk [1] is below 100 nM; with OCI-LY7 cells, below 500 nM.
On the same counts, the results for `[2H]C([2H])=C([2H])C(=O)N(CC)c1cccc(Nc2ncc3cc(-c4c(C)cc[nH]c4=O)ccc3n2)c1` [Example 48] are below 100 nM and below 500 nM.
For `[2H]C([2H])=C([2H])C(=O)N(c1cccc(Nc2ncc3cc(-c4c(C)cc[nH]c4=O)ccc3n2)c1)C([2H])([2H])C([2H])([2H])[2H]` [Example 49] the same measures were below 100 nM and below 500 nM.
Turning to `[2H]C([2H])=C([2H])C(=O)N(CCOC)c1cccc(Nc2ncc3cc(-c4c(C)cc[nH]c4=O)ccc3n2)c1` [Example 50], the IC50 at Btk [1] is below 100 nM; in the experiment with OCI-LY7 cells, below 500 nM. In addition, the “inhibitory effects” value against Btk [1] is “particularly excellent inhibitory effects”.
